{"source": "patent US10045948B2", "about": "“Pramipexole-containing transdermal patch for treatment of neurodegenerative disease” (MEDRX CO., LTD., priority 2014, dated 2018)", "origin": "cited, not measured here", "details": "in vivo", "data": [{"substance": "rotigotine", "values": [{"measurement": "Patients with rash and other types of inflammation at the application site", "value": "40-50%"}]}]}
